In PubChem BioAssay (NCI):
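Protocol summary: plate cells (96-well), add compound at 5 concentrations, incubate 48 h, interpolate endpoints linearly. Definition used: TGI = concentration required for complete inhibition of growth.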 Where a SMILES comes first, the peptide text is derived from it. The star is where a group is joined. Cbz = O=C(OCc1ccccc1)*

How the values were obtained:
Experiment in all cases: NCI-60 cell line screen, 48 h
DLD-1 colon = tested on: DLD-1 colon
LXFL 529 NSCLC = tested on: LXFL 529 NSCLC
XF 498 CNS = tested on: XF 498 CNS
RXF-631 renal = tested on: RXF-631 renal
M19-MEL melanoma = tested on: M19-MEL melanoma
KM20L2 colon = tested on: KM20L2 colon
MDA-MB-435 = tested on: MDA-MB-435
MDA-N = tested on: MDA-N
HOP-18 NSCLC = tested on: HOP-18 NSCLC

| Compound | TGI (DLD-1 colon) | TGI (LXFL 529 NSCLC) | TGI (MDA-MB-435) | TGI (MDA-N) | also measured |
| --- | --- | --- | --- | --- | --- |
| Cc1cccc(N=Cc2ccc(N(CCC#N)S(=O)(=O)c3ccccc3)cc2C)c1 | > 100 µM | > 100 µM |  |  | TGI (XF 498 CNS): > 100 µM; TGI (RXF-631 renal): > 100 µM; TGI (M19-MEL melanoma): > 100 µM; TGI (KM20L2 colon): > 100 µM |
| COC(=O)C(CC(C)C)NC(=O)C(CCCN=C(N)N)NC(=O)OCc1ccccc1 (stereo not drawn) (Cbz-Arg-Leu-OMe; configuration not given here) |  |  | > 100 µM | > 100 µM |  |
| COc1ccc(/C=C2/SC(=Nc3ccccc3)N(NC(=O)Cc3ccccc3)C2=O)c(OC)c1 |  |  | > 100 µM | > 100 µM |  |
| Cc1ccc2nc(CN(CCO)CCO)cc(=O)n2c1 |  |  | > 100 µM | > 100 µM |  |
| COC(=O)CCC(=O)c1ccc2c(c1)CC1(C2)Cc2ccc(C(=O)CCC(=O)OC)cc2C1 |  |  | > 100 µM | > 100 µM |  |
| CSc1nc(-c2ccccc2)nc(C(C#N)C#N)n1 |  |  | > 100 µM | > 100 µM |  |
| CO/N=C(/C(=O)Nc1c[n+](CC(=O)[O-])cs1)c1csc(N)n1 | > 100 µM | > 100 µM |  |  | TGI (XF 498 CNS): > 100 µM; TGI (HOP-18 NSCLC): > 100 µM; TGI (KM20L2 colon): > 100 µM |
| C/C=C\C(CC(=O)NCCC1CN(C(=O)OCc2ccccc2)c2ccccc21)CC(=O)OC (stereo unspecified) |  |  | > 100 µM | > 100 µM |  |
| Cc1c(C(=O)Nc2ccccc2)nnn1-c1ccnc2cc(C(F)(F)F)ccc12 |  |  | > 100 µM | > 100 µM |  |
| O=C1c2cn[nH]c2N=C(Nc2ccccc2)C1N=Cc1ccc([N+](=O)[O-])cc1 (stereo unspecified) |  |  | > 10 µM | > 10 µM |  |
| CC(C)(CCl)NC(=O)c1cccc(C(=O)NC(C)(C)CCl)n1 | > 100 µM | > 100 µM |  |  | TGI (RXF-631 renal): > 100 µM; TGI (M19-MEL melanoma): > 100 µM; TGI (KM20L2 colon): > 100 µM |
| O=C1/C(=C/c2ccccc2)CCc2ccc([N+](=O)[O-])cc21 |  |  | > 100 µM | > 100 µM |  |
| CCN(CC)CCCNc1n[n+]([O-])c2ccccc2[n+]1[O-] |  |  | > 100 µM | > 100 µM |  |
| O=C(O)/C=C/c1ccc(OS(=O)(=O)O)cc1 |  |  | > 100 µM | > 100 µM |  |
| COC(=O)N/N=C(\C)CC(=O)Nc1cccc([N+](=O)[O-])c1 | > 100 µM | > 100 µM |  |  | TGI (XF 498 CNS): > 100 µM; TGI (M19-MEL melanoma): > 100 µM; TGI (KM20L2 colon): > 100 µM |
| COCN1C(=N)C(C(=O)OC(C)(C)C)=C2C=C(O)C=CC21C (stereo unspecified) |  |  | 27.4 µM | 31.9 µM |  |
| CNS(=O)(=O)NNS(=O)(=O)c1ccc(F)cc1 | > 100 µM | > 100 µM |  |  | TGI (XF 498 CNS): > 100 µM; TGI (RXF-631 renal): > 100 µM; TGI (M19-MEL melanoma): > 100 µM; TGI (KM20L2 colon): > 100 µM |
| CCO[C@H]1O[C@@H]2OC3(C)CCC4[C@H](C)CCC([C@H]1C)[C@]42OO3 (stereo partly specified) |  |  | > 100 µM | > 100 µM |  |
| COc1ccccc1/C=N/Nc1nnc2c3ccccc3c3ncccc3c2n1 |  |  | > 100 µM | > 100 µM |  |
| O=C1NC2(CCCC2)C2CCCCC12O (stereo unspecified) | > 100 µM | > 100 µM |  |  | TGI (XF 498 CNS): > 100 µM; TGI (RXF-631 renal): > 100 µM; TGI (M19-MEL melanoma): > 100 µM; TGI (HOP-18 NSCLC): > 100 µM |
| O=C(O[C@H]1[C@@H]2C=CO[C@@H](OC3OC(CO)C(O)C(O)C3O)[C@@H]2[C@@]2(CO)O[C@@H]12)c1ccc(O)c(O)c1 (stereo partly specified) | > 100 µM | > 100 µM |  |  | TGI (XF 498 CNS): > 100 µM; TGI (M19-MEL melanoma): > 100 µM; TGI (KM20L2 colon): > 100 µM |
